Structures can show the parent of a compound that is named as a salt. Values belong to the compound of their own block, whether it stands above or below them.
Tests used:
[1] = test system: AAPH-induced oxidation of linoleate; experiment: AAPH-induced peroxidation of linoleate (conjugated dienes at 234 nm); type: biochemical; settings: for A234 (amount of conjugated dienes formed by the peroxidative process): absorption at 234 nm after 150 min at 37° C., aminopyrazines at 10 μM, AAPH alone 0.37; for antioxidative activity (inhibition of lipid peroxidation), in words: comment on Table 2, 10 μM; for antioxidative activity (inhibition of AAPH-induced peroxidation of linoleic acid), in words: FIG. 3
Experimental: In a preferred embodiment the synthetic derivatives of 2-amino-1,4-pyrazine of family I, characterized by two aryl substituents in positions C-3 and C-5, were endowed with unexpectedly high antioxidative properties (FIG. 1). […] AAPH 4 mM was added to a micellar solution of linoleate (0.16 mM). The rate of conjugated dienes formation was measured at 234 nm at 37° C. All aminopyrazines were tested at 5 μM.
The ability of the synthesized compounds to inhibit lipid peroxidation has been tested on AAPH-induced oxidation of linoleate. Briefly, a micellar solution of linoleate (0.16 mM) is incubated at 37° C. with 4 mM free radical generator AAPH (2,2′-azobis-2-methyl-propionamidine hydrochloride) in a microplate-based spectrophotometer. The production of conjugated dienes by the peroxidation of linoleate is monitored continuously at 234 nm. Antioxidants can both delay the onset of the oxidation process and reduce the rate of the oxidation.
The amount of conjugated dienes formed by the peroxidative process evaluated by the absorption at 234 nm after 150 min at 37° C. All aminopyrazines were tested at 10 μM.

[2] = test system: Human keratinocytes cells (HaCaT); experiment: Protective effect against UVB in HaCaT cells (LDH release); type: cell-based; settings: for Percentage Mortality (LDH assay), Unirradiated cells: 24 hours, no UVB; for mortality at 50 µM: Homo sapiens, light or radiation study, 30 min pre-incubation, UVB 200 mJ/cm^2, 24 hours, control 14.1, read-out: Percentage Mortality (LDH assay), UVB-irradiated cells
Experimental: Human keratinocytes cells (HaCaT) were cultured in 96-well microplates. Tested compounds were solubilized in phosphate buffered saline (PBS) and applied to cells 30 minutes prior to the irradiation with UVB in a BIOSUN irradiation system (Vilbert-Lourmat). PBS was then replaced by the culture medium containing the tested compounds, and incubated for a further 24 hours before measuring the percentage of lactate dehydrogenase (LDH) released into the cell culture supernatant.
Keratinocytes were pre-incubated with aminopyrazines (50 μM) for 30 min and then irradiated with UVB at 200 mJ/cm^2 in the absence of the antioxidant. The cells were then incubated for a further 24 hours in the culture medium containing the tested compounds before measuring the percentage of lactate dehydrogenase (LDH) released into the cell culture supernatant.
Keratinocytes were pre-incubated with increasing concentrations of CD43 for 30 min and then irradiated with UVB at 200 mJ/cm^2. The cells were incubated for a further 24 hours before measuring the percentage of lactate dehydrogenase (LDH) released into the cell culture supernatant.

[3] = FIG. 2, increasing concentrations of CD43

Structure (SMILES): Nc1ncc(-c2ccc(O)cc2)nc1-c1ccc(O)cc1 [CD31, 2-amino-3,5-bis(p-hydroxyphenyl)-1,4-pyrazine]
A234 (amount of conjugated dienes formed by the peroxidative process) [1]: 0.08 | antioxidative activity (inhibition of lipid peroxidation), in words [1]: very active | Percentage Mortality (LDH assay), Unirradiated cells ([2]; 50 μM): 0% | mortality at 50 µM ([2]; 50 μM): 0%

Structure (SMILES): COc1ccc(-c2cnc(N)c(-c3ccc(OC)cc3)n2)cc1 [CD29, 2-Amino-3,5-bis(p-methoxyphenyl)-1,4-pyrazine, reference compound]
A234 (amount of conjugated dienes formed by the peroxidative process) [1]: 0.37 | antioxidative activity (inhibition of lipid peroxidation), in words [1]: reduced activities

Structure (SMILES): Nc1nc(N)c(-c2ccc(O)cc2)nc1-c1ccc(O)cc1 [JFC28, 2,6-diamino-3,5-bis(p-hydroxyphenyl)-1,4-pyrazine]
antioxidative activity (inhibition of AAPH-induced peroxidation of linoleic acid), in words ([1]; 5 μM): does not improve the activity

Structure (SMILES): Nc1ncc(-c2ccc(O)cc2)nc1-c1ccccc1 [CD51, 2-amino-3-phenyl-5-(p-hydroxyphenyl)-1,4-pyrazine]
rate of the oxidation, in words ([1]; FIG. 6, 5 μM): only reduces the rate of the oxidation | A234 (amount of conjugated dienes formed by the peroxidative process) [1]: 0.12 | antioxidative activity (inhibition of lipid peroxidation), in words [1]: more activity | Percentage Mortality (LDH assay), Unirradiated cells ([2]; 50 μM): 0% | mortality at 50 µM ([2]; 50 μM): 7.3%

Structure (SMILES): Cc1nc2c(-c3ccc(O)cc3)[nH]c(-c3ccc(O)cc3)cn-2c1=O [CD43, 2-Methyl-6,8-bis(p-hydroxyphenyl)-3,7-dihydroimidazolo[1,2-a]pyrazin-3-one]
onset of peroxidation, in words [1, 3]: delay of the onset of peroxidation | rate of oxidation after onset, in words [1, 3]: lower rate of oxidation after onset | protection against UVB-induced mortality, in words ([2]; FIG. 4, increasing concentrations of CD43, UVB 200 mJ/cm^2): very efficiently protect cells against UVB-induced mortality | toxicity for cells, in words ([2]; controls): no toxicity for cells

Structure (SMILES): CCOC(=O)C(C)Nc1nc(NC(C)C(=O)OCC)c(-c2ccc(O)cc2)nc1-c1ccc(O)cc1 (centres unmarked) [JFC38, 2,6-Bis(1′-ethoxycarbonyl-ethylamino)-3,5-bis(p-hydroxyphenyl)-1,4-pyrazine]
antioxidative activity (inhibition of AAPH-induced peroxidation of linoleic acid), in words ([1]; 5 μM): very active

Structure (SMILES): CCOC(=O)C(C)Nc1nc(NC(C)C(=O)OCC)c(-c2ccccc2)nc1-c1ccccc1 (centres unmarked) [JFC 39]
antioxidative activity (inhibition of AAPH-induced peroxidation of linoleic acid), in words ([1]; 5 μM): active

Structure (SMILES): Nc1nc(N)c(-c2ccccc2)nc1-c1ccccc1 [JFC 33]
antioxidative activity (inhibition of AAPH-induced peroxidation of linoleic acid), in words ([1]; 5 μM): active

melting point: 99.5 °C (dec.)
Structure (SMILES): Cc1nc2c(-c3ccc(O)cc3)[nH]c(-c3ccccc3)cn-2c1=O (as salt: hydrochloride) (hydrate or solvate) [CD52, 2-Methyl-6-phenyl-8-(p-hydroxyphenyl)-3,7-dihydroimidazolo[1,2-a]pyrazin-3-one]

Structure (SMILES): Nc1ncc(-c2ccccc2)nc1-c1ccc(O)cc1 [CD46, 2-amino-3-(p-hydroxyphenyl)-5-phenyl-1,4-pyrazine]
A234 (amount of conjugated dienes formed by the peroxidative process) [1]: 0.19 | Percentage Mortality (LDH assay), Unirradiated cells ([2]; 50 μM): 0% | protection against UVB-induced cytotoxicity, in words ([2]; 50 μM, UVB 200 mJ/cm^2): very efficiently reduced the cytotoxicity of UVB | mortality at 50 µM ([2]; 50 μM): 0%

melting point: 175 °C (dec.)
Structure (SMILES): CCOC(=O)C(C)Nc1nc(NC(C)C(=O)OCC)c(-c2ccc(O)cc2)nc1-c1ccc(O)cc1 (centres unmarked) (as salt: hydrochloride) [JFC38, 2,6-Bis(1′-ethoxycarbonyl-ethylamino)-3,5-bis(p-hydroxyphenyl)-1,4-pyrazine]

Structure (SMILES): Cc1nc2c(-c3ccccc3)[nH]c(-c3ccc(O)cc3)cn-2c1=O [CD53, 2-Methyl-6-(p-hydroxyphenyl)-8-phenyl-3,7-dihydroimidazolo[1,2-a]pyrazin-3-one]
onset of the oxidation process, in words ([1]; FIG. 6, 5 μM): firstly delays the onset of the oxidation process
